Assay results as given in patent US12391648B2, “Pyridyloxy thioester derivative and preparation method therefor, herbicidal composition, and application” (Qingdao Kingagroot Chemical Compound Co., Ltd., priority 2018, dated 2025).

Columns and labels:
Test in all cases: Post-emergence test experiment (Table 3, 1000 g/ha)
Type in all cases: in vivo
Settings in all cases: post-emergence spray, after 3 weeks, fresh weight inhibition
Abutilon theophrasti = system: Abutilon theophrasti
Method in brief: (§1)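 Weed seeds sown in soil-filled pots in greenhouse, sprayed at 2-3 leaf stage (2 weeks after sowing) with compound in acetone/tween-80 plus methyl oleate emulsible concentrate (1.5 L/ha) diluted in water. Fresh-weight growth inhibition scored after 3 weeks on 0-5 scale (5: >85%, 0: <5%).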

Digitaria sanguinalis = system: Digitaria sanguinalis
Method in brief: as §1

Galium spurium = system: Galium spurium
Method in brief: as §1

Leptochloa chinensis = system: Leptochloa chinensis
Method in brief: as §1

Monochoria vaginalis = system: Monochoria vaginalis
Method in brief: as §1

Setaria viridis = system: Setaria viridis
Method in brief: as §1

| Compound | Activity level (growth inhibition rate) Abutilon theophrasti (Abutilon theophrasti) | Activity level (growth inhibition rate) Digitaria sanguinalis (Digitaria sanguinalis) | Activity level (growth inhibition rate) Galium spurium (Galium spurium) | Activity level (growth inhibition rate) Leptochloa chinensis (Leptochloa chinensis) | Activity level (growth inhibition rate) Monochoria Vaginalis (Monochoria vaginalis) | Activity level (growth inhibition rate) Setaria viridis (Setaria viridis) |
| --- | --- | --- | --- | --- | --- | --- |
| CC(Oc1nc(F)c(Cl)c(N)c1Cl)C(=O)SC1CCCO1 (stereo not drawn) [Compound 106] | 5 (Level 5: the growth inhibition rate is greater than 85%) | 5 (Level 5: the growth inhibition rate is greater than 85%) | 5 (Level 5: the growth inhibition rate is greater than 85%) | 5 (Level 5: the growth inhibition rate is greater than 85%) | 5 (Level 5: the growth inhibition rate is greater than 85%) | 5 (Level 5: the growth inhibition rate is greater than 85%) |
| CC(Oc1nc(F)c(Cl)c(N)c1Cl)C(=O)SC(F)(F)C(F)(F)F (stereo not drawn) [Compound 76] | 5 (Level 5: the growth inhibition rate is greater than 85%) | 5 (Level 5: the growth inhibition rate is greater than 85%) | 5 (Level 5: the growth inhibition rate is greater than 85%) | 5 (Level 5: the growth inhibition rate is greater than 85%) | 5 (Level 5: the growth inhibition rate is greater than 85%) | 5 (Level 5: the growth inhibition rate is greater than 85%) |
| CCCCCCSC(=O)C(C)Oc1nc(F)c(Cl)c(N)c1Cl (stereo not drawn) [Compound 72] | 5 (Level 5: the growth inhibition rate is greater than 85%) | 5 (Level 5: the growth inhibition rate is greater than 85%) | 5 (Level 5: the growth inhibition rate is greater than 85%) | 5 (Level 5: the growth inhibition rate is greater than 85%) | 5 (Level 5: the growth inhibition rate is greater than 85%) | 5 (Level 5: the growth inhibition rate is greater than 85%) |
| CC(Oc1nc(F)c(Cl)c(N)c1Cl)C(=O)Sc1ccc2ccccc2c1 (stereo not drawn) [Compound 114] | 5 (Level 5: the growth inhibition rate is greater than 85%) | 5 (Level 5: the growth inhibition rate is greater than 85%) | 5 (Level 5: the growth inhibition rate is greater than 85%) | 5 (Level 5: the growth inhibition rate is greater than 85%) | 5 (Level 5: the growth inhibition rate is greater than 85%) | 5 (Level 5: the growth inhibition rate is greater than 85%) |
| CCC(C)CSC(=O)C(C)Oc1nc(F)c(Cl)c(N)c1Cl (stereo not drawn) [Compound 145] | 5 (Level 5: the growth inhibition rate is greater than 85%) | 5 (Level 5: the growth inhibition rate is greater than 85%) | 5 (Level 5: the growth inhibition rate is greater than 85%) | 5 (Level 5: the growth inhibition rate is greater than 85%) | 5 (Level 5: the growth inhibition rate is greater than 85%) | 5 (Level 5: the growth inhibition rate is greater than 85%) |
| CC(Oc1nc(F)c(Cl)c(N)c1Cl)C(=O)Sc1ccn(C)n1 (stereo not drawn) [Compound 118] | 5 (Level 5: the growth inhibition rate is greater than 85%) | 5 (Level 5: the growth inhibition rate is greater than 85%) | 5 (Level 5: the growth inhibition rate is greater than 85%) | 5 (Level 5: the growth inhibition rate is greater than 85%) | 5 (Level 5: the growth inhibition rate is greater than 85%) | 5 (Level 5: the growth inhibition rate is greater than 85%) |
| CC(Oc1nc(F)c(Cl)c(N)c1Cl)C(=O)SC(N)C(=O)O (stereo not drawn) [Compound 103] | 5 (Level 5: the growth inhibition rate is greater than 85%) | 5 (Level 5: the growth inhibition rate is greater than 85%) | 5 (Level 5: the growth inhibition rate is greater than 85%) | 5 (Level 5: the growth inhibition rate is greater than 85%) | 5 (Level 5: the growth inhibition rate is greater than 85%) | 5 (Level 5: the growth inhibition rate is greater than 85%) |
| CC(Oc1nc(F)c(Cl)c(N)c1Cl)C(=O)Sc1cn(C)cn1 (stereo not drawn) [Compound 123] | 5 (Level 5: the growth inhibition rate is greater than 85%) | 5 (Level 5: the growth inhibition rate is greater than 85%) | 5 (Level 5: the growth inhibition rate is greater than 85%) | 5 (Level 5: the growth inhibition rate is greater than 85%) | 5 (Level 5: the growth inhibition rate is greater than 85%) | 5 (Level 5: the growth inhibition rate is greater than 85%) |
| CCCCCCCCCCSC(=O)C(C)Oc1nc(F)c(Cl)c(N)c1Cl (stereo not drawn) [Compound 141] | 5 (Level 5: the growth inhibition rate is greater than 85%) | 5 (Level 5: the growth inhibition rate is greater than 85%) | 5 (Level 5: the growth inhibition rate is greater than 85%) | 5 (Level 5: the growth inhibition rate is greater than 85%) | 5 (Level 5: the growth inhibition rate is greater than 85%) | 5 (Level 5: the growth inhibition rate is greater than 85%) |
| CC(Oc1nc(F)c(Cl)c(N)c1Cl)C(=O)SCC(C)(C)C (stereo not drawn) [Compound 148] | 5 (Level 5: the growth inhibition rate is greater than 85%) | 5 (Level 5: the growth inhibition rate is greater than 85%) | 5 (Level 5: the growth inhibition rate is greater than 85%) | 5 (Level 5: the growth inhibition rate is greater than 85%) | 5 (Level 5: the growth inhibition rate is greater than 85%) | 5 (Level 5: the growth inhibition rate is greater than 85%) |
| CC(Oc1nc(F)c(Cl)c(N)c1Cl)C(=O)SCC(F)(F)F (stereo not drawn) [Compound 78] | 5 (Level 5: the growth inhibition rate is greater than 85%) | 5 (Level 5: the growth inhibition rate is greater than 85%) | 5 (Level 5: the growth inhibition rate is greater than 85%) | 5 (Level 5: the growth inhibition rate is greater than 85%) | 5 (Level 5: the growth inhibition rate is greater than 85%) | 5 (Level 5: the growth inhibition rate is greater than 85%) |
| CC(Oc1nc(F)c(Cl)c(N)c1Cl)C(=O)SC[N+](=O)[O-] (stereo not drawn) [Compound 156] | 5 (Level 5: the growth inhibition rate is greater than 85%) | 5 (Level 5: the growth inhibition rate is greater than 85%) | 5 (Level 5: the growth inhibition rate is greater than 85%) | 5 (Level 5: the growth inhibition rate is greater than 85%) | 5 (Level 5: the growth inhibition rate is greater than 85%) | 5 (Level 5: the growth inhibition rate is greater than 85%) |
| CC(Oc1nc(F)c(Cl)c(N)c1Cl)C(=O)Sc1ccccc1 (stereo not drawn) [Compound 107] | 5 (Level 5: the growth inhibition rate is greater than 85%) | 5 (Level 5: the growth inhibition rate is greater than 85%) | 5 (Level 5: the growth inhibition rate is greater than 85%) | 5 (Level 5: the growth inhibition rate is greater than 85%) | 5 (Level 5: the growth inhibition rate is greater than 85%) | 5 (Level 5: the growth inhibition rate is greater than 85%) |
| CSC(=O)C(C)Oc1nc(F)c(Cl)c(NCc2ccc(C(F)(F)F)o2)c1Cl (stereo not drawn) [Compound 161] | 5 (Level 5: the growth inhibition rate is greater than 85%) | 5 (Level 5: the growth inhibition rate is greater than 85%) | 5 (Level 5: the growth inhibition rate is greater than 85%) | 5 (Level 5: the growth inhibition rate is greater than 85%) | 5 (Level 5: the growth inhibition rate is greater than 85%) | 5 (Level 5: the growth inhibition rate is greater than 85%) |
